US20030023104A1, “Therapeutic compound - fatty acid conjugates” (COMMONWEALTH SCIENTIFIC AND INDUSTRIAL RESEARCH ORGANISATION, priority 1995, published 2003)
Where two headings read alike, the source gives them in different places.

Columns and labels:
HIV-I U4550 = assay: Anti HIV activity, Ag gp120 production in infected JM cells; type: cell-based
Protocol: (§1) The anti-HIV activities of AZT-Suc-GTP1 and AZT-Suc-GTP2 were also tested. Infected cells were incubated for 5 days with compound. Compounds were dissolved in DMSO and 5-fold dilutions were used. The following parameters were measured: syncytia formation, virus antigen gp120 production, cell survival. Cytotoxicity is also measured in uninfected cells.
(§2) JM (semi mature human T-cell from lymphoblastoid leukemia) infected with HIV-I U4550
(§3) EC50=concentration which reduces Ag gp120by 50% in infected cell cultures.

[1] = tested on: JURKAT (acute T cell human leukemia); assay: Cytotoxicity of AZT and conjugates, MTS viability assay, JURKAT; type: cell-based
Protocol: (§4) The cytotoxicity of AZT and AZT-fatty acid conjugates (AZT-Suc-GTP1P2 and P3) was tested in vitro with JURKAT (acute T cell human leukemia) and peripheral blood mononuclear cells (PBMC).
(§5) Each concentration was tested in at least 3 wells.

[2] = tested on: peripheral blood mononuclear cells (PBMC); assay: Cytotoxicity of AZT and conjugates, MTS viability assay, PBMC; type: cell-based, human; details: 40 h, drug in ethanol
Protocol: as §4
Human peripheral blood mononuclear cells (PBMC) were isolated from three healthy donors by centrifugation on Ficoll-Paque (Pharmacia). Cells were seeded into a 96-well plates at a density of 2×10^5 cells/200 ul complete RPMI ± drug and cultured for 40 h.
as §5

[3] = tested on: C8166 (human T-lymphoblastoid cells); assay: Cell growth (cytotoxicity) in C8166 cells; type: cell-based
Protocol: as §1
(§6) C8166 (human T-lymphoblastoid cells) infected with HIV-I MN
(§7) IC50=concentration of drug which reduces cell growth by 50%.

HIV-I MN = assay: Anti HIV activity, Ag gp120 production in infected C8166 cells; type: cell-based
Protocol: as §1, §6, §3

[4] = tested on: JM (semi mature human T-cell from lymphoblastoid leukemia); assay: Cell growth (cytotoxicity) in JM cells; type: cell-based
Protocol: as §1, §2, §7

coordination of mice = assay: Coordination on Rotor-Rod; type: in vivo, Quackenbush Strain mice; details: 1 and 4 hr after ip injection, 1.6 rpm
Protocol: Coordination of mice after treatment was also assessed by placing treated animals on a Rotor-Rod at 1.6 rpm. The ability of animals to stay on the rod was assessed.

[5] = tested on: pain response on heated plate; details: for Time Response ± SEM: doses 5, 10 & 20 mg Morphine/kg pooled, 12 mice per group; for Behaviour Score ± SEM: pooled doses, panel score 0 (agitated) to 3 (placid)
Protocol: The biological activities of Morphine (Mo) and fatty acid conjugates were tested in an antinociceptive assay using mice. Various doses and duration of pain-killing effect of the drugs were examined.
Quackenbush Strain mice (male, 5-week-old, approximately 30 g live weight) were used for the experiments. Animals were given free access to food and water prior to and during the experiment. Animals were divided into groups of 12 and individually weighed. The mean weight for each group was calculated. Mice were then placed on a metal block heated to 50° C. and the time taken for the animals to show signs of discomfort was measured (baseline response: control). Mice were then injected intraperitoneally (ip) with various doses of Morphine or Morphine-fatty acid conjugate. Morphine was made up in a H2O solution and Morphine-fatty acids were made up in an emulsion containing 10% glycerylmonooleate, 21% Miglyol, 6% ethanol, 24% Tween 80 (33%) and 39% H2O. 0.2 ml of appropriate solution was injected ip into each mouse. At different times after injection, responses on the heated plate were measured. In each experiment 3 doses of Morphine and Morphine-fatty acid and 2 time points were tested. A single mouse was used for each treatment and the entire experiment repeated at least 3 times. […] Members of the panel were asked to score mice behaviour according to the following key:
0=agitated mouse, distressed
1=showing mild discomfort
2=not agitated or uncomfortable but still alert
3=placid. docile; not at all worried.
Results from the panel were averaged.

[6] = 5 days, read-out: IC50 (concentration of drug which reduces cell growth by 50%)

Structure (SMILES) | ability to stay on the Rotor-Rod (coordination) (coordination of mice) | mean time response ([5]; 5 mg Mo/kg ip, 1 hr) | mean time response ([5]; 5 mg Mo/kg ip, 4 hr) | mean time response ([5]; 5 mg Mo/kg ip, 6 hr) | Time Response ± SEM ([5]; 1 hr after ip injection) | Behaviour Score ± SEM ([5]; 1 hr after ip injection) | Time Response ± SEM ([5]; 4 hr after ip injection) | Behaviour Score ± SEM ([5]; 4 hr after ip injection) | further results
CCCCCCCCCCCCCCCC(=O)OCC(CO)(CO)NC(=O)CNC(=O)CCC(=O)OC[C@H]1O[C@@H](n2cc(C)c(=O)[nH]c2=O)C[C@@H]1N=[N+]=[N-] [AZT-Suc-GTP1] |  |  |  |  |  |  |  |  | Ratio of AZT: Conjugate EC50 (HIV-I U4550; JM cell line): 12.5; EC50 (HIV-I U4550; JM cells infected with HIV-I U4550, 5 days, read-out: EC50 (concentration which reduces Ag gp120 by 50% in infected cell cultures)): 8 µM; times more cytotoxic than the parent drug ([1]; JURKAT cells, versus AZT): 40; IC50 ([1]; JURKAT, 64 h, drug in ethanol, MTS): 43 µM; IC50 [2]: 26.7 µM; fold more cytotoxic than AZT [3]: 50; IC50 [3, 6]: 100 µM; Ratio of AZT: Conjugate EC50 (HIV-I MN; C8166 cell line): 1.3; EC50 (HIV-I MN; C8166 cells infected with HIV-I MN, 5 days, read-out: EC50 (concentration which reduces Ag gp120 by 50% in infected cell cultures)): 0.012 µM; fold more cytotoxic than AZT [4]: 50; IC50 [4, 6]: 100 µM
CN1CC[C@]23c4c5ccc(O)c4O[C@H]2[C@@H](O)C=C[C@H]3[C@H]1C5 [Morphine, reference compound] | able to stay on the rotor-rod | 27.8 (4) sec | 23.9 (8) sec | 20.0 (4) sec | 32.7 ± 2.74 s | 2.46 ± 0.166 | 28.2 ± 2.74 s | 1.93 ± 0.166 | mean time response ([5]; 1 mg Mo/kg ip, 4 hr, standard error of each mean ±2.86): 23.2 s; mean time response ([5]; 1 mg Mo/kg ip, 6 hr, standard error of each mean ±2.86): 20.8 s; mean time response ([5]; 10 mg Mo/kg ip, 4 hr, standard error of each mean ±2.86): 23.0 s; mean time response ([5]; 10 mg Mo/kg ip, 6 hr, standard error of each mean ±2.86): 24.2 s
CCCCCCCCCCCCCCCC(=O)OCC(CO)(COC(=O)CCCCCCCCCCCCCCC)NC(=O)CNC(=O)CCC(=O)Oc1ccc2c3c1O[C@H]1[C@@H](O)C=C[C@H]4[C@@H](C2)N(C)CC[C@@]341 [Morphine-Suc-GTP2, Morphine-Suc-Gly-Tris-Dipalmitate] | able to stay on the rotor-rod | 24.0 (4) sec | 30.5 (8) sec | 27.8 (4) sec | 26.7 ± 2.74 s | 2.34 ± 0.166 | 31.2 ± 2.74 s | 2.35 ± 0.166 | duration of pain-killing effect compared with morphine ([5]; ip injection): longer lasting pain-killing effect than unconjugated morphine
